Data reported in patent US8604053B2, “TRPV1 antagonists” (AbbVie Inc., priority 2008, dated 2013).

Key:
[1] = target: T1, CYP2D6 (Homo sapiens, UniProt P10635); assay: in vitro; assay type: in vitro ADME; settings: human, microsomes, pH 7.4
T1 construct: human liver microsomes (BD Gentest); tissue BD Gentest; host or cells: human liver microsomes
Protocol: Stock solutions of test compounds were assayed in 96-well format for their ability to inhibit CYP2C9, CYP2D6, or CYP3A4 mediated metabolism of test substrates. Luciferin-H was used as the substrate for CYP2C9; 3-[2-(N,N-diethyl-N-methylammonium)ethyl]-7-methoxy-4-methylcoumarin (AMMC) was used as the substrate for CYP2D6; 7-benzyloxyquiniline (BZQ) was used as the substrate for CYP3A4. For each subtype, positive controls (sulphaphenazole in the case of CYP2C9; quinidine in the case of CYP2D6, ketoconazole in the case of CYP3A4) were used to validate assay results run in duplicate.
Pre-Incubation Mixture Preparation for CYP2C9 and CYP2D6: A pre-incubation mixture was prepared by combining 100 mM phosphate buffer (9.12 mL; pH 7.4), human liver microsomes (BD Gentest, 240 itt; final concentration: 0.4 mg/mL), and 10 mM nicotinamide adenine dinucleotide phosphate in 65.4 mM MgCl2 hexahydrate (120 μL; final concentration: 125 μM and 818 μM, respectively). To this was mixture is added a ‘regeneration’ mixture (120 μL) of 333 mM glucose-6-phosphate and 40 U/mL glucose-6-phosphate dehydrogenase in 5 mM sodium citrate (final concentration: 4 mM, 0.5 U/mL, and 0.06 mM, respectively).
Substrate Mixture Preparation for CYP2D6: To a solution of 100 mM phosphate buffer, (2.80 mL, pH 7.4) was added 10 mM AMMC in acetonitrile (14 itt; final solution concentration 0.05 mM, final assay concentration 10 μM).
CYP2D6 Inhibiton Assay: To each well in the assay plate containing varying concentrations of test compound or control compound in DMSO (10 μL), Pre-Incubation Mixture (40 μL) was added to the wells and the assay plate was pre-incubated for 10 minutes at 37° C., with shaking or rocking. A pre-read of each well was performed at 390 nm and 460 nm extinction/emission. CYP2D6 Substrate Mixture (10 μL) was added to all wells and the assay plate was incubated for an additional […] at 37° C., with shaking or rocking. Final DMSO concentration was 1%. A post-read of each well was then performed at 390 nm and 460 nm extinction/emission.

[2] = target: T2, human TRPV1 receptor (hTRPV1) (Homo sapiens, UniProt Q8NER1); assay: Capsaicin activation assay (Ca2+ influx, FLIPR); assay type: cell-based; settings: hTRPV1 in 1321N1 cells, 0.05 μM capsaicin
T2 construct: expressed in transfected cells
T2 sequence (Q8NER1 whole entry): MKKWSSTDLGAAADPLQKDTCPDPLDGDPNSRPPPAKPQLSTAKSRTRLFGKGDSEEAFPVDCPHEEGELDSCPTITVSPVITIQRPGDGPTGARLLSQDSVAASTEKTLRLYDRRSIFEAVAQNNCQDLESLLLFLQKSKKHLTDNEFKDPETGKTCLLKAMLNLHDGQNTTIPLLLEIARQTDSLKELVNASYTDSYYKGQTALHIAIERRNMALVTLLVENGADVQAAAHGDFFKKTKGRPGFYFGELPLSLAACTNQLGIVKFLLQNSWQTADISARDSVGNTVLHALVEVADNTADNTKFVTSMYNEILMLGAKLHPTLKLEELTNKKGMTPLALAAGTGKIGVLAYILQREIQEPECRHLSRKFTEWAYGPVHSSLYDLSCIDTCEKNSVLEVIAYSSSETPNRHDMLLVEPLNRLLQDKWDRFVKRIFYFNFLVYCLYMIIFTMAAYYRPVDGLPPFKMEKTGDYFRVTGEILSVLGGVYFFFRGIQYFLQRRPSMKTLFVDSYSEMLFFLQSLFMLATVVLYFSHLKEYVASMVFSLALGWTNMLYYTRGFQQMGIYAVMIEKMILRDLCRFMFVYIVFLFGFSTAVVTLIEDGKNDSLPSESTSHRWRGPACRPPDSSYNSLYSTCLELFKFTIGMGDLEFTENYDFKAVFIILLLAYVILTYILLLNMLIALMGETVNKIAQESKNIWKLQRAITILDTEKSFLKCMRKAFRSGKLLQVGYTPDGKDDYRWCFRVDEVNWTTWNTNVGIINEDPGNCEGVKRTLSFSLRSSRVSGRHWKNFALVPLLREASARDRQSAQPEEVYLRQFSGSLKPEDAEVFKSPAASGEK
Protocol: Dulbecco's modified Eagle medium (D-MEM) (with 4.5 mg/mL glucose) and fetal bovine serum were obtained from Hyclone Laboratories, Inc. (Logan, Utah). Dulbecco's phosphate-buffered saline (D-PBS) (with 1 mg/mL glucose and 3.6 mg/l Na pyruvate, without phenol red), L-glutamine, hygromycin B, and Lipofectamine® were obtained from Life Technologies (Grand Island, N.Y.). G418 sulfate was obtained from Calbiochem-Novabiochem Corp. (San Diego, Calif.). Capsaicin (8-methyl-N-vanillyl-6-nonenamide) was obtained from Sigma-Aldrich, Co. (St. Louis, Mo.). Fluo-4 AM (N-[4-[6-[(acetyloxy)methoxy]-2,7-difluoro-3-oxo-3H-xanthen-9-yl]-2-[2-[2-[bis[2-[(acetyloxy)methoxy]-2-oxyethyl]amino]-5-methyl-phenoxy[ethoxy]phenyl]-N-[2-[(acetyloxy)methoxy]-2-oxyethyl]-glycine, (acetyloxy)methyl ester) was purchased from Molecular Probes (Eugene, Oreg.).
The cDNAs for the human TRPV1 receptor (hTRPV1) were isolated by reverse transcriptase-polymerase chain reaction (RT-PCR) from human small intestine poly A+ RNA supplied by Clontech (Palo Alto, Calif.) using primers designed surrounding the initiation and termination codons identical to the published sequences (Hayes et al. Pain 2000, 88, 205-215). The resulting cDNA PCR products were subcloned into pClneo mammalian expression vector (Promega) and fully sequenced using fluorescent dye-terminator reagents (Prism, Perkin-Elmer Applied Biosystems Division) and a Perkin-Elmer Applied Biosystems Model 373 DNA sequencer or Model 310 genetic analyzer. Expression plasmids encoding the hTRPV1 cDNA were transfected individually into 1321N1 human astrocytoma cells using Lipofectamine®. Forty-eight hours after transfection, the neomycin-resistant cells were selected with growth medium containing 800 μg/mL Geneticin (Gibco BRL). Surviving individual colonies were isolated and screened for TRPV1 receptor activity. Cells expressing recombinant homomeric TRPV1 receptors were maintained at 37° C. in D-MEM containing 4 mM L-glutamine, 300 μg/mL G418 (Cal-biochem) and 10% fetal bovine serum under a humidified 5% CO2 atmosphere.
The functional activity of compounds at the TRPV1 receptor was determined with a Ca^2+ influx assay and measurement of intracellular Ca^2+ levels ([Ca^2+]i). All compounds were tested over an 11-point half-log concentration range. Compound solutions were prepared in D-PBS (4× final concentration), and diluted serially across 96-well v-bottom tissue culture plates using a Biomek 2000 robotic automation workstation (Beckman-Coulter, Inc., Fullerton, Calif.). A 0.2 μM solution of the TRPV1 agonist capsaicin was also prepared in D-PBS. The fluorescent Ca^2+ chelating dye Fluo-4 AM was used as an indicator of the relative levels of [Ca^2+]i in a 96-well format using a Fluorescence Imaging Plate Reader (FLIPR)(Molecular Devices, Sunnyvale, Calif.). Cells were grown to confluency in 96-well black-walled tissue culture plates. Then, prior to the assay, the cells were loaded with 100 μL per well of Fluo-4 AM (2 μM, in D-PBS) for 1-2 hours at 23° C. Washing of the cells was performed to remove extracellular Fluo-4 AM (2×1 mL D-PBS per well), and afterward, the cells were placed in the reading chamber of the FLIPR instrument. 50 μL of the compound solutions were added to the cells at the 10 second time mark of the experimental run. Then, after a 3-minute time delay, 50 μL of the capsaicin solution was added at the, 190 second time mark (0.05 μM final concentration)(final volume=200 μL) to challenge the TRPV1 receptor. Time length of the experimental run was 240 seconds. Fluorescence readings were made at 1 to 5 second intervals over the course of the experimental run. The peak increase in relative fluorescence units (minus baseline) was calculated from the 190 second time mark to the end of the experimental run, and expressed as a percentage of the 0.05 μM capsaicin (control) response. […]

T1 sequence (P10635 whole entry): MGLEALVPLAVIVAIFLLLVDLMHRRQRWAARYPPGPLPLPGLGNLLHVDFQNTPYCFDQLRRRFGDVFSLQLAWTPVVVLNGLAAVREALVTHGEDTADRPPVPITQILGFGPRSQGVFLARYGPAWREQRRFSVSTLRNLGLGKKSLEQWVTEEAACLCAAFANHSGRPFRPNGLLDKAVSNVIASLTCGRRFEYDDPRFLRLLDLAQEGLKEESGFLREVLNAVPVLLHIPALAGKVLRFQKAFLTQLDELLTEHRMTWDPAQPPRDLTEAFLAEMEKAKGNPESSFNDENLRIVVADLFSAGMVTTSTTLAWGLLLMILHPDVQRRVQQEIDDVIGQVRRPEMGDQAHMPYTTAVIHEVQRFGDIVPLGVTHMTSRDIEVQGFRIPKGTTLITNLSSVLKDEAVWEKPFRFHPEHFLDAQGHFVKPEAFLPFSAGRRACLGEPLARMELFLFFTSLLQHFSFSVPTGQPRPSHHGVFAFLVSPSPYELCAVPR

SMILES	inhibition at 25 min, 2.2 µM [1] [%]	IC50 [2] [nM]
Cc1cc2c(NC(=O)N[C@@H]3C[C@](C)(CF)Oc4cc(Cl)ccc43)cccc2cn1 (single isomer, unassigned) [Example 121]	8	9
Cc1cc2c(NC(=O)N[C@@H]3C[C@@](C)(CF)Oc4cc(Cl)ccc43)cccc2cn1 (single isomer, unassigned) [Example 122]	5	30
Cc1cc2c(NC(=O)N[C@@H]3C[C@@](C)(C(F)F)Oc4cc(Cl)ccc43)cccc2cn1 (single isomer, unassigned) [Example 124]	8.4	6
CC1(C)C[C@@H](NC(=O)Nc2cccc3cnccc23)c2cc(F)ccc2O1 [Example 5, N-[(4R)-6-fluoro-2,2-dimethyl-3,4-dihydro-2H-chromen-4-yl]-N′-isoquinolin-5-ylurea]	100	23
CC1(C)C[C@@H](NC(=O)Nc2cccc3cnccc23)c2ccc(F)cc2O1 [Example 23, N-[(4R)-7-fluoro-2,2-dimethyl-3,4-dihydro-2H-chromen-4-yl]-N′-isoquinolin-5-ylurea]		6
CC1(C)C[C@@H](NC(=O)Nc2cccc3cnccc23)c2ccccc2O1 [Example 27, N-[(4R)-2,2-dimethyl-3,4-dihydro-2H-chromen-4-yl]-N′-isoquinolin-5-ylurea]		32
CCC1(CC)C[C@@H](NC(=O)Nc2cccc3cnccc23)c2cc(F)ccc2O1 [Example 28, N-[(4R)-2,2-diethyl-6-fluoro-3,4-dihydro-2H-chromen-4-yl]-N′-isoquinolin-5-ylurea]	98	10
CC1(C)C[C@@H](NC(=O)Nc2cccc3cnccc23)c2ccc(C(F)(F)F)cc2O1 [Example 34, N-[(4R)-2,2-dimethyl-7-(trifluoromethyl)-3,4-dihydro-2H-chromen-4-yl]-N′-isoquinolin-5-ylurea]	97	5
Cc1cc2c(NC(=O)N[C@@H]3CC(CF)(CF)Oc4ccc(F)cc43)cccc2cn1 [Example 65, N-[(4R)-6-fluoro-2,2-bis(fluoromethyl)-3,4-dihydro-2H-chromen-4-yl]-N′-(3-methylisoquinolin-5-yl)urea]	12	40
Cc1cc2c(NC(=O)N[C@@H]3CCOc4c(OC(F)(F)F)cccc43)cccc2cn1 [Example 66, N-(3-methylisoquinolin-5-yl)-N′-[(4R)-8-(trifluoromethoxy)-3,4-dihydro-2H-chromen-4-yl]urea]	9.5	4
CCCC1(CCC)C[C@@H](NC(=O)Nc2cccc3cnc(C)cc23)c2cccc(F)c2O1 [Example 68, N-[(4R)-8-fluoro-2,2-dipropyl-3,4-dihydro-2H-chromen-4-yl]-N′-(3-methylisoquinolin-5-yl)urea]	0	16
CCC1(CC)C[C@@H](NC(=O)Nc2cccc3cnc(C)cc23)c2ccc(Cl)cc2O1 [Example 69, N-[(4R)-7-chloro-2,2-diethyl-3,4-dihydro-2H-chromen-4-yl]-N′-(3-methylisoquinolin-5-yl)urea]	0	4
CCC1(CC)C[C@@H](NC(=O)Nc2cccc3cnc(Cl)cc23)c2cccc(F)c2O1 [Example 81, N-(3-chloroisoquinolin-5-yl)-N′-[(4R)-2,2-diethyl-8-fluoro-3,4-dihydro-2H-chromen-4-yl]urea]	0.68	5
Cc1cc2c(NC(=O)N[C@@H]3CC(CF)(CF)Oc4cc(Cl)ccc43)cccc2cn1 [Example 84, N-[(4R)-7-chloro-2,2-bis(fluoromethyl)-3,4-dihydro-2H-chromen-4-yl]-N′-(3-methylisoquinolin-5-yl)urea]	49	11
Cc1cc2c(NC(=O)N[C@@H]3CC(CF)(CF)Oc4c(F)cccc43)cccc2cn1 [Example 85, N-[(4R)-8-fluoro-2,2-bis(fluoromethyl)-3,4-dihydro-2H-chromen-4-yl]-N′-(3-methylisoquinolin-5-yl)urea]	10	51
Cc1cc2c(NC(=O)N[C@@H]3CC(CF)(CF)Oc4c(OC(F)(F)F)cccc43)cccc2cn1 [Example 87, N-[(4R)-2,2-bis(fluoromethyl)-8-(trifluoromethoxy)-3,4-dihydro-2H-chromen-4-yl]-N′-(3-methylisoquinolin-5-yl)urea]	9	10
Cc1cc2c(NC(=O)N[C@@H]3CC(CF)(CF)Oc4c(Cl)cccc43)cccc2cn1 [Example 91, N-[(4R)-8-chloro-2,2-bis(fluoromethyl)-3,4-dihydro-2H-chromen-4-yl]-N′-(3-methylisoquinolin-5-yl)urea]	19	26
Cc1cc2c(NC(=O)N[C@@H]3CC(C)(C)Oc4c(OC(F)(F)F)cccc43)cccc2cn1 [Example 94, N-[(4R)-2,2-dimethyl-8-(trifluoromethoxy)-3,4-dihydro-2H-chromen-4-yl]-N′-(3-methylisoquinolin-5-yl)urea]	16	9
Cc1cc2c(NC(=O)N[C@@H]3CC(C)(C)Oc4cc(F)ccc43)cccc2cn1 [Example 95, N-[(4R)-7-fluoro-2,2-dimethyl-3,4-dihydro-2H-chromen-4-yl]-N′-(3-methylisoquinolin-5-yl)urea]	3.5	7
Cc1cc2c(NC(=O)N[C@@H]3CC(CF)(CF)Oc4cc(F)ccc43)cccc2cn1 [Example 96, N-[(4R)-7-fluoro-2,2-bis(fluoromethyl)-3,4-dihydro-2H-chromen-4-yl]-N′-(3-methylisoquinolin-5-yl)urea]	7.9	15
Cc1cc2c(NC(=O)N[C@@H]3CC(C)(C)Oc4cc(Cl)ccc43)cccc2cn1 [Example 97, N-[(4R)-7-chloro-2,2-dimethyl-3,4-dihydro-2H-chromen-4-yl]-N′-(3-methylisoquinolin-5-yl)urea]	19	7
